# Legend:
# [1] = Cytotoxicity assay (growth inhibition, Coulter counter); details: human, CEM-SS cells (wild type, parental)
# Description: […] Each result is the mean of one representative experiment performed in duplicate. The cultures with the purine nucleosides adenosine, 2′-deoxyadenosine, and arabinosyladenine contained 5 μM deoxycoformycin to inhibit adenosine deaminase activity.
# (§1) All assays were performed in 24-well tissue culture plates (Costar, Cambridge, Ma.). […] At the end of the incubation, the cell concentrations, sizes, and volumes were counted in a Coulter counter (Coulter Electronics, Hialeah. Fla.).
# [2] = as above; details: human
# Description: Selection for PMEA resistance was carried out by exposing CEM-SS cells in culture to increasing concentrations of PMEA, over several months.
# The IC50 values were obtained after 2 days of culture. Each result is the mean of one representative experiment performed in duplicate. The cultures with the purine nucleosides adenosine, 2′-deoxyadenosine, and arabinosyladenine contained 5 μM deoxycoformycin to inhibit adenosine deaminase activity.
# as §1
# [3] = system: HIV-1IIIB in CEM-SS cells; experiment: Antiviral activity (ED50, RT / p24 assay) in wild type cells; assay type: cell-based; details: Human immunodeficiency virus 1, WT (CEM-SS) cells
# Excerpt: (§2) As used herein, “pM” means picomolar, “nM” means nanmolar, “μM, means micromolar, “mM” means millimolar, “ul” or “μl” mean microliter, “ml” means milliliter, “l” means liter. […] “IC50” means the inhibitory concentration at which growth is arrested by 50 percent.
# (§3) The two cell lines, CEM-SS and CEM-r1 were infected with HIV-IMB at a multiplicity of 0.01, and cultured for 6 days in the presence and absence of different concentrations of test drugs. The extent of virus production was monitored by in in-house p24 antigen capture assay (50).
# The antiviral effects of the different drugs were monitored by RT assays according to previously described procedures (20, 21). […] After 5 days of incubation, the RT activity of the culture supernates was determined by previously described procedures (22). […] The filter papers were dried, transferred to a plastic bag containing scintillation cocktail, sealed, and counted in an LKB Betaplate reader. The drug concentrations yielding half-maximal RT activity (ED50) was calculated as a measure of the antiviral efficacy of the test compounds, using the nonlinear curve-fitting software Enzfitter (Elsevier Biosoft, Cambridge, UK).
# [4] = system: HIV-1IIIB in CEM-r1 cells; experiment: Antiviral activity (ED50, RT / p24 assay) in resistant cells; assay type: cell-based; details: Human immunodeficiency virus 1; CEM-r1 cells, HIV
# Excerpt: as §2, §3
# The antiviral effects of the different drugs were monitored by RT assays according to previously described procedures (20, 21). CEM-SS or CEM-r1 cells were infected with an inoculum of HIV-1IIIB standardized to contain 1 RT cpm/cell, and the virus-infected cells were seeded at a concentration of 0.2×10^6 cells/ml in medium containing varying concentrations of PMEA (or other test compounds). After 5 days of incubation, the RT activity of the culture supernates was determined by previously described procedures (22). […] The reaction was initiated by addition of 10 ul of virus-containing tissue culture supernatant. After 1 hr of incubation, 10 ul of the reaction mixture were spotted on a Whatman DE-81 tilter paper, air dried, and washed four times with 2×standard saline citrate (0.3 M NaCl, 0.03 M sodium citrate). The filter papers were dried, transferred to a plastic bag containing scintillation cocktail, sealed, and counted in an LKB Betaplate reader. The drug concentrations yielding half-maximal RT activity (ED50) was calculated as a measure of the antiviral efficacy of the test compounds, using the nonlinear curve-fitting software Enzfitter (Elsevier Biosoft, Cambridge, UK).
structure (smiles),measurement,setting,value
"Nc1ccn([C@@H]2CS[C@H](CO)O2)c(=O)n1 [3TC, lamivudine]",IC50 at 48 h,[1],1000 µM
same,IC50 at 48 h,[2],5000 µM
same,EC50,[3],0.21 µM
same,EC50,[4],1.1 µM

# Source: patent US6759238B1, “Multidrug resistance associated proteins and uses thereof” (priority 1999, dated 2004)
